How the values were obtained:
Assay in all cases: relative viability (nuclei count vs DMSO), 5 days (fraction); higher = more cells survive
[1] = compound: N[C@@H]1CCCN(c2c(/C=C3\SC(=O)NC3=O)cccc2-c2ccccc2)C1 [AZD1208] + Cc1cc(Nc2cc(N3CCN(C)CC3)nc(Sc3ccc(NC(=O)C4CC4)cc3)n2)n[nH]1 [Tozasertib] (partner 0.1 µM)
Summary of the method: (§1)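 Lung cancer cell lines in 1536-well plates were dosed by pin tool the day after seeding, either with one drug alone or with a fixed anchor-drug dose plus five library-drug doses (not always all listed) in √10 steps. After 5 days, cells were fixed and their nuclei stained in one step (final 0.05% Triton X-100, 1% formaldehyde, 1 ug/ml Hoechst), then counted on 4× images. Relative viability is the nuclei count in treated wells divided by that in vehicle wells. Values are medians of duplicate plates.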

[2] = compound: N[C@@H]1CCCN(c2c(/C=C3\SC(=O)NC3=O)cccc2-c2ccccc2)C1 [AZD1208] + Nc1ncn([C@H]2C[C@H](O)[C@@H](CO)O2)c(=O)n1 [Decitabine] (partner 2 µM)
Summary of the method: as §1

[3] = compound: CN1CCN(CC1)C2=CC(=C(C=C2)NC3=NC(=C(S3)C(=O)C4=C(C=CC=C4Cl)Cl)N)OC [XMD14-99] + CC1(C)CCC(c2ccc(Cl)cc2)=C(CN2CCN(c3ccc(C(=O)NS(=O)(=O)c4ccc(N[C@H](CCN5CCOCC5)CSc5ccccc5)c(S(=O)(=O)C(F)(F)F)c4)cc3)CC2)C1 [Navitoclax] (partner 0.5 µM)
Summary of the method: as §1

[4] = compound: N[C@@H]1CCCN(c2c(/C=C3\SC(=O)NC3=O)cccc2-c2ccccc2)C1 [AZD1208] + N=C(N)NC(=N)NCCc1ccccc1 [Phenformin] (partner 250 µM)
Summary of the method: as §1

Work on UMC-11 yielded a relative viability ([1]; first compound 0.08 µM) of 0.204, a relative viability ([1]; first compound 0.253 µM) of 0.205 and a relative viability ([1]; first compound 0.8 µM) of 0.211. The relative viability ([1]; first compound 2.53 µM) was 0.207, the relative viability ([1]; first compound 8 µM) was 0.21 and the relative viability ([2]; first compound 0.08 µM) was 0.478. The relative viability ([2]; first compound 0.253 µM) was 0.513, the relative viability ([2]; first compound 0.8 µM) was 0.49 and the relative viability ([2]; first compound 2.53 µM) was 0.515. For the same cell line, the relative viability ([2]; first compound 8 µM) was 0.383, the relative viability ([3]; first compound 0.08 µM) was 0.308 and the relative viability ([3]; first compound 0.8 µM) was 0.33. For the same cell line, the relative viability ([3]; first compound 2.53 µM) was 0.343, the relative viability ([3]; first compound 8 µM) was 0.317 and the relative viability ([4]; first compound 0.08 µM) was 0.312. For the same cell line, the relative viability ([4]; first compound 0.253 µM) was 0.355, the relative viability ([4]; first compound 0.8 µM) was 0.339 and the relative viability ([4]; first compound 2.53 µM) was 0.388. It also gave a relative viability ([4]; first compound 8 µM) of 0.306.
